According to PubChem BioAssay (NCI):
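1) Cells in 96-well plates. 2) Compound, 48 h, 5 concentrations. 3) Linear interpolation between surrounding doses. 4) Unreached endpoint = highest concentration. GI50: concentration for 50% inhibition of growth. The concentration for full growth arrest is given as TGI.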

What was measured:
Experiment in all cases: growth of human tumour cells (NCI), 48 h
SF-539 CNS = test system: SF-539 CNS
PC-3 prostate = test system: PC-3 prostate
COLO 205 colon = test system: COLO 205 colon
UACC-62 melanoma = test system: UACC-62 melanoma
SK-MEL-28 melanoma = test system: SK-MEL-28 melanoma
SR leukemia = test system: SR leukemia
LOX IMVI melanoma = test system: LOX IMVI melanoma
EKVX NSCLC = test system: EKVX NSCLC
RXF 393 renal = test system: RXF 393 renal
K-562 leukemia = test system: K-562 leukemia
MDA-MB-231 breast = test system: MDA-MB-231 breast
CAKI-1 renal = test system: CAKI-1 renal
SK-MEL-5 melanoma = test system: SK-MEL-5 melanoma
KM12 colon = test system: KM12 colon
OVCAR-4 ovarian = test system: OVCAR-4 ovarian
M14 melanoma = test system: M14 melanoma
T-47D breast = test system: T-47D breast
SW-620 colon = test system: SW-620 colon
OVCAR-5 ovarian = test system: OVCAR-5 ovarian
HOP-92 NSCLC = test system: HOP-92 NSCLC
HT29 colon = test system: HT29 colon
NCI-H460 lung = test system: NCI-H460 lung
SNB-19 CNS = test system: SNB-19 CNS
SF-295 CNS = test system: SF-295 CNS
SF-268 CNS = test system: SF-268 CNS
NCI-H23 lung = test system: NCI-H23 lung
CCRF-CEM leukemia = test system: CCRF-CEM leukemia
OVCAR-8 ovarian = test system: OVCAR-8 ovarian
HS 578T breast = test system: HS 578T breast
SK-OV-3 ovarian = test system: SK-OV-3 ovarian
BT-549 breast = test system: BT-549 breast
ACHN renal = test system: ACHN renal
MDA-MB-435 = test system: MDA-MB-435
HOP-62 NSCLC = test system: HOP-62 NSCLC
IGROV1 ovarian = test system: IGROV1 ovarian
SN12C renal = test system: SN12C renal
OVCAR-3 ovarian = test system: OVCAR-3 ovarian
RPMI-8226 leukemia = test system: RPMI-8226 leukemia
UACC-257 melanoma = test system: UACC-257 melanoma
NCI-H522 lung = test system: NCI-H522 lung
A549 NSCLC = test system: A549 NSCLC
SNB-75 CNS = test system: SNB-75 CNS
U251 CNS = test system: U251 CNS
HCC-2998 colon = test system: HCC-2998 colon
HCT-116 colon = test system: HCT-116 colon
786-0 renal = test system: 786-0 renal
HCT-15 colon = test system: HCT-15 colon
DU-145 prostate = test system: DU-145 prostate
HL-60(TB) leukemia = test system: HL-60(TB) leukemia
MCF7 breast = test system: MCF7 breast
NCI/ADR-RES ovarian = test system: NCI/ADR-RES ovarian
MOLT-4 leukemia = test system: MOLT-4 leukemia
TK-10 renal = test system: TK-10 renal

With Cn1cc(CO)c2c1C(=O)C=C(N1CC1)C2=O the GI50 (SF-539 CNS) was < 10 nM, the TGI (SF-539 CNS) was < 10 nM and the GI50 (PC-3 prostate) was 15.3 nM. The TGI (PC-3 prostate) was 128 nM, the GI50 (COLO 205 colon) was < 18.7 nM and the GI50 (UACC-62 melanoma) was < 10 nM. For the same compound, the TGI (UACC-62 melanoma) was 16.3 nM, the GI50 (SK-MEL-28 melanoma) was < 16.6 nM and the TGI (SK-MEL-28 melanoma) was 605 nM. The GI50 (SR leukemia) was < 10 nM, the TGI (SR leukemia) was 14.5 nM and the GI50 (LOX IMVI melanoma) was < 10 nM. The TGI (LOX IMVI melanoma) was 18.4 nM, the GI50 (EKVX NSCLC) was 214 nM and the TGI (EKVX NSCLC) was 1150 nM. For the same compound, the GI50 (RXF 393 renal) was < 30.5 nM, the TGI (RXF 393 renal) was 914 nM and the GI50 (K-562 leukemia) was 22.4 nM. The TGI (K-562 leukemia) was 11100 nM, the GI50 (MDA-MB-231 breast) was 2660 nM and the TGI (MDA-MB-231 breast) was 5960 nM. The GI50 (CAKI-1 renal) was < 10 nM, the TGI (CAKI-1 renal) was < 12.5 nM and the GI50 (SK-MEL-5 melanoma) was < 10 nM. The TGI (SK-MEL-5 melanoma) was < 10 nM, the GI50 (KM12 colon) was 14.5 nM and the TGI (KM12 colon) was 85.5 nM. The GI50 (OVCAR-4 ovarian) was 25.6 nM, the TGI (OVCAR-4 ovarian) was 91.7 nM and the GI50 (M14 melanoma) was < 10 nM. For the same compound, the TGI (M14 melanoma) was < 10 nM, the GI50 (T-47D breast) was 353 nM and the TGI (T-47D breast) was 7810 nM. The GI50 (SW-620 colon) was < 10 nM, the TGI (SW-620 colon) was > 31600 nM and the GI50 (OVCAR-5 ovarian) was 36.5 nM. The TGI (OVCAR-5 ovarian) was 4790 nM, the GI50 (HOP-92 NSCLC) was 898 nM and the TGI (HOP-92 NSCLC) was 4000 nM. The GI50 (HT29 colon) was < 18.9 nM, the TGI (HT29 colon) was > 57300 nM and the GI50 (NCI-H460 lung) was < 10 nM. The TGI (NCI-H460 lung) was 1270 nM, the GI50 (SNB-19 CNS) was < 19.7 nM and the TGI (SNB-19 CNS) was 862 nM. The GI50 (SF-295 CNS) was < 10 nM, the GI50 (SF-268 CNS) was < 15.4 nM and the TGI (SF-268 CNS) was 2350 nM. The GI50 (NCI-H23 lung) was < 10 nM, the TGI (NCI-H23 lung) was < 21.5 nM and the GI50 (CCRF-CEM leukemia) was 260 nM. The TGI (CCRF-CEM leukemia) was 11200 nM, the GI50 (OVCAR-8 ovarian) was < 10 nM and the TGI (OVCAR-8 ovarian) was 3580 nM. It also gave a GI50 (HS 578T breast) of 17 nM, a TGI (HS 578T breast) of 47.2 nM and a GI50 (SK-OV-3 ovarian) of 41.3 nM. The TGI (SK-OV-3 ovarian) was 1310 nM, the GI50 (BT-549 breast) was < 12.8 nM and the TGI (BT-549 breast) was 133 nM. For the same compound, the GI50 (ACHN renal) was < 10 nM, the TGI (ACHN renal) was 10.2 nM and the GI50 (MDA-MB-435) was < 10 nM. The TGI (MDA-MB-435) was 40 nM, the GI50 (HOP-62 NSCLC) was < 10 nM and the TGI (HOP-62 NSCLC) was < 11.6 nM. For the same compound, the GI50 (IGROV1 ovarian) was < 10.4 nM, the TGI (IGROV1 ovarian) was 1800 nM and the GI50 (SN12C renal) was < 10 nM. For the same compound, the TGI (SN12C renal) was 27 nM, the GI50 (OVCAR-3 ovarian) was < 13.3 nM and the TGI (OVCAR-3 ovarian) was 37.5 nM. The GI50 (RPMI-8226 leukemia) was < 10 nM, the TGI (RPMI-8226 leukemia) was 192 nM and the GI50 (UACC-257 melanoma) was 19.8 nM. The TGI (UACC-257 melanoma) was 69.2 nM, the GI50 (NCI-H522 lung) was < 10 nM and the TGI (NCI-H522 lung) was 77.5 nM. The GI50 (A549 NSCLC) was < 10 nM, the TGI (A549 NSCLC) was 3680 nM and the GI50 (SNB-75 CNS) was < 10 nM. The TGI (SNB-75 CNS) was 44.4 nM, the GI50 (U251 CNS) was < 10 nM and the TGI (U251 CNS) was 72.6 nM. For the same compound, the GI50 (HCC-2998 colon) was < 12.2 nM, the TGI (HCC-2998 colon) was 49 nM and the GI50 (HCT-116 colon) was < 10.6 nM. For the same compound, the GI50 (786-0 renal) was < 10 nM, the TGI (786-0 renal) was 108 nM and the GI50 (HCT-15 colon) was < 10 nM. The TGI (HCT-15 colon) was 81.8 nM, the GI50 (DU-145 prostate) was < 10 nM and the TGI (DU-145 prostate) was 131 nM. The GI50 (HL-60(TB) leukemia) was 2680 nM, the TGI (HL-60(TB) leukemia) was 18100 nM and the GI50 (MCF7 breast) was < 10 nM. For the same compound, the GI50 (NCI/ADR-RES ovarian) was 29.1 nM, the TGI (NCI/ADR-RES ovarian) was 275 nM and the GI50 (MOLT-4 leukemia) was 2640 nM. The TGI (MOLT-4 leukemia) was > 100000 nM and the GI50 (TK-10 renal) was 21.5 nM.
